Laboratory results as given in patent publication US20230123334A1, “AMINO LIPID COMPOUND, PREPARATION METHOD THEREFOR, AND APPLICATION THEREOF” (SHENZHEN SHENXIN BIOTECHNOLOGY CO., LTD., priority 2020, published 2023).

Assays:
[1] = Particle size and PDI of lipid nanoparticles (Nano-ZSZEN3600, Malvern); format: physicochemical; conditions: LNPs; for Particle size (nm): Fluc mRNA
Experimental: (§1) The amino lipid compound of the invention was mixed with DOPE, cholesterol and PEG2000-DMG in a molar ratio of 45:10:42.5:2.5, and dissolved in absolute ethanol such that the molar concentration of the amino lipid compound was 0.001-0.01 mmol/L. By using a microinjection pump, the resultant ethanol solution and a sodium acetate solution (50 mM, pH=4.0) in which luciferase mRNA (Fluc mRNA, TriLink) was dissolved were mixed in a volume ratio of 1:3 in a microchannel chip to prepare a crude solution of lipid nanoparticles, which was then dialyzed in 1×PBS at a controlled temperature of 4° C. for 6 h using a dialysis box (Fisher, MWCO 20,000) and filtered through a 0.22 μm microporous filter membrane before use. The mass ratio of the amino lipid compound to Fluc mRNA was about 10:1. The resultant solution of lipid nanoparticles (LNPs) was administered to the tested animals by subcutaneous administration.
Characterization of particle size: the particle size and PDI of the prepared lipid nanoparticles were determined by Nano-ZSZEN3600 (Malvern). 40 uL of LNP solution was taken for particle size measurement with circulation for three times, 30 s for each circulation.
(§2) The preparation method was the same as Formulation method 1, except that amino lipid compound, DSPC, cholesterol and PEG2000-DMG were used in a molar ratio of 50:10:38.5: 1.5. The resultant solution of lipid nanoparticles (LNPs) was administered to the tested animals by tail vein and intramuscular injection.

BALB/c mice [2] = test: In vivo delivery of luciferase mRNA (Fluc mRNA) by lipid nanoparticles, in vivo imaging; conditions: 0.5 mg/kg Fluc mRNA, after 12 hours
Experimental: as §1, §2
(§3) Animal Preparation: 6-week aged female BALB/c mice weighed about 20 g were selected and fed in a SPF-grade feeding room. Animal tests were conducted strictly according to the guidelines of national health institutions and the requirements of animal ethics.
In vivo delivery: 9 mice were assigned randomly to each group, and the lipid nanoparticle solution was injected by three routes of administration, i.e., subcutaneous, intramuscular and tail vein injection at a dosage of 0.5 mg/kg Fluc mRNA (3 mice for each route of administration). After 12 hours, 200 μL of 10 mg/mL potassium salt of […] (PerkinElmer) was injected into each mouse through the tail vein. After 10 min, the mice were placed under an in vivo imaging system (IVIS-200, Xenogen) to observe the total fluorescence intensity of each mouse and take photographs for record. The expression intensity of Fluc mRNA delivered by representative amino lipid compounds through the three routes of administration are shown in Table 5-7. DLin-MC3 was used as control.

[3] = Encapsulation rate of LNP RNA (Qubit RNA HS Assay kit); format: physicochemical; conditions: LNPs
Experimental: as §1
Detection of encapsulation rate: the concentration of LNP RNA was detected by Qubit® RNA HS Assay kit. The theoretical RNA concentration was given by the total amount of RNA input divided by the total volume of the final solution.
as §2

BALB/c mice [4] = test: In vivo delivery of ovalbumin mRNA (OVA mRNA) and immunity, IgG antibody titer by ELISA; conditions: OVA mRNA LNPs 0.5 mg/kg Day 0 and Day 7, serum Day 21, versus DLin-MC3 control, FIG. 1
Experimental: The amino lipid compound of the invention was mixed with DOPE, cholesterol and PEG2000-DMG in a molar ratio of 50:10:38.5:1.5 and dissolved in absolute ethanol such that the molar concentration of the amino lipid compound was 0.001-0.01 mmol/L. Ovalbumin mRNA (OVA mRNA, TriLink) was dissolved in sodium acetate solution (50 mM, pH=4.0). By using a microinjection pump, the resultant ethanol solution and sodium acetate solution (50 mM, pH=4.0) were mixed in a volume ratio of 1:3 in a microchannel chip to prepare a crude solution of lipid nanoparticles, which was then dialyzed in 1×PBS at a controlled temperature of 4° C. for 6 h using a dialysis box (Fisher, MWCO 20,000), and filtered through a 0.22 μm microporous filter membrane before use. The mass ratio of the amino lipid compound to ovalbumin mRNA (OVA mRNA) was about 10:1.
as §3
In vivo delivery: 3 mice were assigned randomly to each group, and the lipid nanoparticle solution was intramuscularly injected into the leg at a dosage of 0.5 mg/kg mRNA (Day 0). After 7 days, one booster injection was performed at the same dosage (Day 7). On Day 21, blood was taken from the tail vein for serological analysis. DLin-MC3 was used as control (FIG. 1).
Enzyme-linked immunosorbent assay (ELISA): a flat-bottomed 96-well plate (Nunc) was pre-coated, with a concentration of OVA protein of 0.5 μg protein per well in 50 mM carbonate buffer (pH 9.6), and was allowed to stay overnight at 4° C. and then blocked with 5% glycine. Serum obtained from animals receiving the lipid nanoparticle solution containing the mRNA was diluted from 10^2 to 10^6 times with PBS-0.05% Tween (PBS-T) at pH 7.4, and added to the wells, incubated at room temperature and placed at 37° C. for 1 h. Horseradish peroxidase (HRP, Invitrogen) coupled goat anti-mouse IgG was used for labeling in PBS-T-1% BSA at a dilution rate of 1:10,000. After addition of the HRP substrate, the absorbance at 450 nm was measured in ELISA microplate reader (Bio-Rad).

MCF7 cells [5] = test: Transfection of MCF7 cell line, DNA vectors; format: cell-based; parameters: concentration or dose not given beside the values; conditions: plasmid DNA, GFP cells / total cells
Procedure, shortened: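 Read-out: GFP-positive cells as % of all Hoechst-stained nuclei after 96-well transfection of MCF7 cells grown in serum-supplemented DMEM. Positive control was Lipofectamine2000, used per manufacturer's protocol.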

HEK293 cells [6] = test: Preliminary screening as DNA vectors, GFP transfection of HEK293 cells; format: cell-based; conditions: HEK293 cells; lipid/DOPE liposome with 75 ng plasmid DNA (psin-EGFP-IRES-Puro); number of cells expressing GFP divided by total number of nuclei (Hoechst)
Procedure, shortened: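 HEK293 cells in DMEM/10% FBS transfected with 75 ng EGFP plasmid per well complexed with amino lipid/DOPE liposomes in pH 5.6 sodium acetate. Hoechst nuclear stain added 20-24 h post-transfection, then cells cultured another 20-24 h. Confocal imaging gives GFP-positive cells as % of total nuclei.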

MCF7 cells [7] = test: Transfection of MCF7 cell line, mRNA vectors; format: cell-based; conditions: 50 ng EGFP mRNA per well
Procedure, shortened: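 Efficiency was scored as the fraction of GFP-fluorescent cells over all Hoechst-counted cells after delivery of 50 ng EGFP mRNA per well. Cells were MCF7 grown in serum-supplemented DMEM, and Lipofectamine2000 served as reference.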

Hela cells [8] = test: Transfection of Hela cell line, DNA vectors; format: cell-based; conditions: 75 ng plasmid DNA, GFP cells / total cells
Procedure, shortened: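 Amino lipid/DOPE liposomes in sodium acetate pH 5.6 were complexed with 75 ng psin-EGFP-IRES-Puro plasmid for 30 min at room temperature, then mixed with 3-5×10^4 Hela cells in DMEM/10% FBS at 37° C. Hoechst stain after 20-24 h, imaging after a further 20-24 h. Efficiency = GFP-positive cells / total nuclei.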

HEK293 cells [9] = test: Preliminary screening as mRNA vectors, EGFP mRNA transfection of HEK293 cells; format: cell-based; conditions: HEK293 cells, 96-well plates, EGFP mRNA 50 ng per well; percentage of GFP fluorescent cells relative to total number of cells (Hoechst)
Procedure, shortened: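 HEK293 cells in DMEM plus 10% FBS transfected in 96-well format with 50 ng EGFP mRNA per well; Lipofectamine2000 served as positive control. Read-out is the percentage of GFP-fluorescent cells among total cells, counted by Hoechst nuclear stain.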

Hela cells [10] = test: Transfection of Hela cell line, mRNA vectors; format: cell-based; conditions: 50 ng EGFP mRNA per well
Procedure, shortened: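 Transfection efficiency was scored as GFP-fluorescent cells over Hoechst-stained total nuclei, with Lipofectamine2000 as reference reagent. Each well of HeLa cells, grown in DMEM plus 10% FBS, received 50 ng EGFP mRNA.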

[11] = Formulation Method 1 (amino lipid:DOPE:cholesterol:PEG2000-DMG 45:10:42.5:2.5)
[12] = Formulation method 2 (amino lipid:DSPC:cholesterol:PEG2000-DMG 50:10:38.5:1.5)

Row | SMILES | PDI ([1]; Formulation Method 1) | Particle size (nm) [1, 11] [nm] | PDI ([1]; Formulation method 2) | Particle size (nm) [1, 12] [nm] | Fluorescence intensity (expression intensity of Fluc mRNA) (BALB/c mice [2]; intramuscular administration) | Fluorescence intensity (expression intensity of Fluc mRNA) (BALB/c mice [2]; subcutaneous administration) | Fluorescence intensity (expression intensity of Fluc mRNA) (BALB/c mice [2]; tail vein administration) | Encapsulation rate ([3]; Formulation Method 1) [%] | Encapsulation rate ([3]; Formulation method 2) [%] | IgG antibody titer (BALB/c mice [4]) | Absolute DNA transfection efficiency in MCF7 cells (MCF7 cells [5]) [%] | Absolute DNA transfection efficiency in HEK293 cells (HEK293 cells [6]) [%] | Absolute mRNA transfection efficiency in MCF7 cells (MCF7 cells [7]) [%] | Absolute DNA transfection efficiency in Hela cells (Hela cells [8]) [%] | Absolute mRNA transfection efficiency in HEK293 cells (HEK293 cells [9]) [%] | Absolute mRNA transfection efficiency in Hela cells (Hela cells [10]) [%]
1 | CCCCCCCCCCCCCCCCCCSc1nc(NCCN2CCCC2)nc(SCCCCCCC)n1 [Compound S7S18D3] | 0.10 | 121 ± 5 | 0.04 | 95 ± 5 | 8.7E+07 | 2.9E+08 | 8.1E+07 | 99.5 | 99.3 | significantly superior to that of the control | – | – | – | – | – | –
2 | CCCCCCCC/C=C\CCCCCCCCSc1nc(OCCN2CCCC2)nc(SCCCCCCCCC)n1 [Compound S19S9O8] | 0.02 | 88 ± 5 | 0.03 | 88 ± 5 | 9.1E+07 | 1.1E+07 | 1.1E+08 | 99.6 | 99.2 | significantly superior to that of the control | – | – | – | – | – | –
3 | CCCCCCCC/C=C\CCCCCCCCSc1nc(OCC2CCN(C)CC2)nc(SCCCCCCCCC)n1 [Compound S19S9O9] | 0.04 | 110 ± 5 | 0.05 | 110 ± 5 | 1.8E+07 | 2.8E+07 | 3.1E+07 | 99.2 | 99.0 | significantly superior to that of the control | – | – | – | – | – | –
4 | CCCCCCCCCCCCCCCCSc1nc(NCCCCCCC)nc(NCCCN2CCN(C)CC2)n1 [Compound S16N7D9] | 0.01 | 102 ± 5 | 0.05 | 92 ± 5 | 4.3E+07 | 1.4E+07 | 5.1E+07 | 98.6 | 99.2 | significantly superior to that of the control | – | – | – | – | – | –
5 | CCCCCCCCCCCCCCCCSc1nc(NCCN2CCN(C)CC2)nc(SCCCCCCCCC)n1 [Compound S9S16D5] | 0.04 | 152 ± 5 | 0.05 | 130 ± 5 | 5.2E+06 | 4.2E+07 | 7.5E+06 | 99.1 | 99.6 | – | 26.6 | 23.5 | 32.0 | 11.7 | 47.8 | 11.7
